Measurements from patent US10065965B2, “Imidazo[1,2-B][1,2,4]triazine derivatives as antiparasitic agents” (GlaxoSmithKline Intellectual Property Development Limited, priority 2015, dated 2018).
≈ marks a conversion by molar mass, not a printed value.

Legend:
Trypanosoma cruzi = experiment: Assay 6 Trypanosoma cruzi intracellular assay (infected H9C2 cells); type: cell-based; conditions: H9c2, in Rattus norvegicus, 72 h, infected H9C2 rat cardiomyocytes, read-out: pEC50 value against Trypanosoma cruzi (converted)
Procedure: Compounds were dispensed into black 384-well assay plates (Greiner) by acoustic dispensing (LabCyte ECHO). For potency determinations, eleven-point, one in three dilution curves were generated, with a top concentration of 50 μM. H9C2 rat cardiomyocytes cells were dispensed in T225 tissue culture flasks and after 4 hours they were infected during 18 hours with T. cruzi trypomastigotes in the same T225 tissue culture flasks at a multiplicity of infection of 1. Next, any remaining free trypomastigotes were washed away with PBS and the infected H9C2 cells were harvested by trypsinisation. The infected H9C2 cells were then plated into 384-well plates containing the compounds to be tested, at 2500 cells per well in DMEM media with 2% FBS, 1% Penicillin/Streptomocin, 2 mM L-Glutamine, 1 mM Na Pyruvate and 25 mM HEPES. After 72 h incubation at 37° C. in presence of 5% CO2, the plates were fixed and stained with 4% formaldehyde and 2 μM Draq5 for 3 hours at room temperature. The plates were imaged on a Perkin Elmer Opera high-content imaging system using a 20× air objective. Images were analysed using the Acapella building blocks system (Perkin Elmer). The image analysis algorithm first identified the H9C2 nuclei followed by demarcation of the cytoplasm and identification of intracellular amastigotes. This algorithm reported mean number of parasites per H9C2 cell, the percentage of infected H9C2 cells and the total number of H9C2 cells.

[1] = Assay 4 solubility assay, ChemiLuminescent Nitrogen Detection (CLND); type: physicochemical; conditions: phosphate buffered saline, pH 7.4, aqueous buffer, kinetic from dmso stock, pH 7.4 PBS, from 10 mM DMSO stock, 1 h at room temperature
Procedure: A 10 mM DMSO stock solution of the compound was prepared. Solvents and Buffers Organic solvents of HPLC grade were used. Ultra pure water (Milli-Q grade) was used. Buffers were prepared with ultra pure water and filtered using 0.45μ cameo filters. Aqueous Buffer Solution: Phosphate Buffer Saline (PBS) @ pH 7.4 was prepared from Sigma dry powder packs, P-3813. Each one was diluted to 1 liter with deionised water. The pH was checked before the solution was used II. Procedures. • a) DMSO concentration was measured. DMSO blanks and ondansetron and caffeine standards were added to the plate (column 12, A, B, C, & D for the blanks and E, F, G, & H for the standards). Plates were covered with foil. When the UV and CLND detectors baselines appeared to be stable, the CLND was zeroed. • b) Once DMSO concentration measurements were complete, a filtration plate was prepared from each parent plate by diluting 5 μl of the 10 mM DMSO stock solution to […] with pH7.4 PBS. • c) After the plates were prepared, they were covered with a plate lid and left to incubate for 1 h at room temperature. • d) Sample was filtered using MILLIPORE MultiScreen Solubility (MSSLBPC10) Filtration Plates, to NUNC V well plates. The filter plate was removed and the NUNC plate was sealed with a power seal plate seal. • e) HPLC/CLND instruments were set up and left to equilibrate. Mobile phases (MeOH:H2O 1:1, flow rate: 0.2 ml/min, sensitivity z10, Gain High). The samples were run. • f) The assay curve fit was done by linear regression and solubility values were reported in μM.

solubility at 1 h [1] [µM] | Structure (SMILES) | EC50 (Trypanosoma cruzi) [nM]
– | O=C(Nc1ccc(F)c(-c2cn3nc(C4CCOC4)cnc3n2)c1)N1CCCC1 (racemic) [Example 23, (+,−)-N-(4-fluoro-3-(2-(tetrahydrofuran-3-yl)imidazo[1,2-b] [1,2,4]triazin-6-yl)phenyl)pyrrolidine-1-carboxamide] | 5.01 to 631
100 to 416 (≈ 37 to 154 µg/mL) | CC(O)c1cnc2nc(-c3cc(NC(=O)N4CCCC4)ccc3F)cn2n1 (racemic) [Example 24, (+,−)-N-(4-fluoro-3-(2-(1-hydroxyethyl)imidazo [1,2-b][1,2,4]triazin-6-yl)phenyl)pyrrolidine-1-carboxamide] | 5.01 to 631
– | O=C(Nc1ccc(F)c(-c2cn3nc(N4CCCOCC4)cnc3n2)c1)N1CCCC1 [Example 11, N-(3-(2-(1,4-oxazepan-4-yl)imidazo[1,2-b][1,2,4]triazin-6-yl)-4-fluorophenyl)pyrrolidine-1-carboxamide] | 5.01 to 631
10 to 83 (≈ 4.08 to 33.9 µg/mL) | O=C(Nc1ccc(F)c(-c2cn3nc(C4=CCOCC4)cnc3n2)c1)N1CCCC1 [Example 12, N-(3-(2-(3,6-dihydro-2H-pyran-4-yl)imidazo[1,2-b] [1,2,4]triazin-6-yl)-4-fluorophenyl)pyrrolidine-1-carboxamide] | 5.01 to 631
100 to 416 (≈ 36.8 to 153 µg/mL) | CC(C)c1cnc2nc(-c3cc(NC(=O)N4CCCC4)ccc3F)cn2n1 [Example 13, N-(4-fluoro-3-(2-isopropylimidazo [1,2-b][1,2,4]triazin-6-yl)phenyl)pyrrolidine-1-carboxamide] | 5.01 to 631
10 to 83 (≈ 3.66 to 30.4 µg/mL) | C=C(C)c1cnc2nc(-c3cc(NC(=O)N4CCCC4)ccc3F)cn2n1 [Example 14, N-(4-fluoro-3-(2-(prop-1-en-2-yl)imidazo [1,2-b][1,2,4]triazin-6-yl)phenyl)pyrrolidine-1-carboxamide] | 5.01 to 631
100 to 416 (≈ 41 to 171 µg/mL) | O=C(Nc1ccc(F)c(-c2cn3nc(C4CCOCC4)cnc3n2)c1)N1CCCC1 [Example 15, N-(4-fluoro-3-(2-(tetrahydro-2H-pyran-4-yl)imidazo[1,2-b] [1,2,4]triazin-6-yl)phenyl)pyrrolidine-1-carboxamide] | 5.01 to 631
1 to 6 (≈ 0.532 to 3.19 µg/mL) | O=C(Nc1ccc(F)c(-c2cn3nc(-c4ccc(OCCN5CCOCC5)cc4)cnc3n2)c1)N1CCCC1 [Example 17, N-(4-fluoro-3-(2-(4-(2-morpholinoethoxy)phenyl)imidazo[1,2-b][1,2,4]triazin-6-yl)phenyl) pyrrolidine-1-carboxamide] | 5.01 to 631
10 to 83 (≈ 5.02 to 41.6 µg/mL) | O=C(Nc1ccc(F)c(-c2cn3nc(-c4ccccc4CN4CCOCC4)cnc3n2)c1)N1CCCC1 [Example 20, N-(4-fluoro-3-(2-(2-(morpholinomethyl)phenyl)imidazo[1,2-b] [1,2,4]triazin-6-yl)phenyl)pyrrolidine-1-carboxamide] | 5.01 to 631
– | COCCOc1ccc(-c2cnc3nc(-c4cc(NC(=O)N5CCCC5)ccc4F)cn3n2)cc1 [Example 21, N-(4-fluoro-3-(2-(4-(2-methoxyethoxy)phenyl)imidazo[1,2-b][1,2,4]triazin-6-yl)phenyl) pyrrolidine-1-carboxamide] | 5.01 to 631
100 to 416 (≈ 38.4 to 160 µg/mL) | O=C(Nc1ccc(F)c(-c2cn3nc(CCCO)cnc3n2)c1)N1CCCC1 [Example 25, N-(4-fluoro-3-(2-(3-hydroxypropyl)imidazo [1,2-b][1,2,4]triazin-6-yl)phenyl)pyrrolidine-1-carboxamide] | 5.01 to 631
100 to 416 (≈ 42.5 to 177 µg/mL) | Cc1c(-c2cc(NC(=O)N3CCCC3)ccc2F)nc2ncc(N3CCOCC3)nn12 [Example 27, N-(4-fluoro-3-(7-methyl-2-morpholinoimidazo [1,2-b][1,2,4]triazin-6-yl)phenyl)pyrrolidine-1-carboxamide] | 5.01 to 631
100 to 416 (≈ 40.7 to 170 µg/mL) | Cc1c(-c2cccc(NC(=O)N3CCCC3)c2)nc2ncc(N3CCOCC3)nn12 [Example 28, N-(3-(7-methyl-2-morpholinoimidazo [1,2-b][1,2,4]triazin-6-yl)phenyl)pyrrolidine-1-carboxamide] | 5.01 to 631
10 to 83 (≈ 4.77 to 39.6 µg/mL) | COCCOc1ccccc1-c1cnc2nc(-c3cc(NC(=O)N4CCCC4)ccc3F)cn2n1 [Example 29, N-(4-fluoro-3-(2-(2-(2-methoxyethoxy)phenyl)imidazo[1,2-b][1,2,4]triazin-6-yl)phenyl) pyrrolidine-1-carboxamide] | 5.01 to 631
10 to 83 (≈ 4.32 to 35.9 µg/mL) | COc1ccccc1-c1cnc2nc(-c3cc(NC(=O)N4CCCC4)ccc3F)cn2n1 [Example 30, N-(4-fluoro-3-(2-(2-methoxyphenyl)imidazo [1,2-b][1,2,4]triazin-6-yl)phenyl)pyrrolidine-1-carboxamide] | 5.01 to 631
10 to 83 (≈ 4.03 to 33.5 µg/mL) | O=C(Nc1ccc(F)c(-c2cn3nc(-c4ccccn4)cnc3n2)c1)N1CCCC1 [Example 35, N-(4-fluoro-3-(2-(pyridin-2-yl)imidazo[1,2-b] [1,2,4]triazin-6-yl)phenyl)pyrrolidine-1-carboxamide] | 5.01 to 631
10 to 83 (≈ 3.82 to 31.7 µg/mL) | CC(C)Cc1cnc2nc(-c3cc(NC(=O)N4CCCC4)ccc3F)cn2n1 [Example 36, N-(4-fluoro-3-(2-isobutyl-imidazo[1,2-b][1,2,4]triazin-6-yl)phenyl) pyrrolidine-1-carboxamide] | 5.01 to 631
100 to 416 (≈ 42.9 to 179 µg/mL) | O=C(Nc1ccc(F)c(-c2nc3ncc(N4CCOCC4)nn3c2F)c1)N1CCCC1 [Example 40, N-(4-fluoro-3-(7-fluoro-2-morpholinoimidazo [1,2-b][1,2,4]triazin-6-yl)phenyl)pyrrolidine-1-carboxamide] | 5.01 to 631
100 to 416 (≈ 39.7 to 165 µg/mL) | O=C(Nc1ccc(F)c(-c2cn3nc(N4CCOCC4)cnc3n2)c1)N1CCC1 [Example 42, N-(4-fluoro-3-(2-morpholinoimidazo [1,2-b][1,2,4]triazin-6-yl)phenyl)azetidine-1-carboxamide] | 5.01 to 631
10 to 83 (≈ 4.28 to 35.5 µg/mL) | O=C(Nc1ccc(Cl)c(-c2cn3nc(N4CCOCC4)cnc3n2)c1)N1CCCC1 [Example 43, N-(4-chloro-3-(2-morpholinoimidazo[1,2-b][1,2,4]triazin-6-yl)phenyl)pyrrolidine-1-carboxamide] | 5.01 to 631
100 to 416 (≈ 36.8 to 153 µg/mL) | CC(=O)c1cnc2nc(-c3cc(NC(=O)N4CCCC4)ccc3F)cn2n1 [Example 46, N-(3-(2-acetylimidazo [1,2-b][1,2,4]triazin-6-yl)-4-fluorophenyl) pyrrolidine-1-carboxamide] | 5.01 to 631
10 to 83 (≈ 3.8 to 31.6 µg/mL) | CC(C)=Cc1cnc2nc(-c3cc(NC(=O)N4CCCC4)ccc3F)cn2n1 [Example 47, N-(4-fluoro-3-(2-(2-methylprop-1-en-1-yl)imidazo[1,2-b][1,2,4]triazin-6-yl)phenyl) pyrrolidine-1-carboxamide] | 5.01 to 631
10 to 83 (≈ 4.39 to 36.5 µg/mL) | O=C(Nc1cnc2nc(-c3cc(NC(=O)N4CCCC4)ccc3F)cn2n1)C1CCCO1 (stereo not shown) [Example 49, N-(4-fluoro-3-(2-(tetra-hydrofuran-2-carboxamido)imidazo [1,2-b][1,2,4]triazin-6-yl)phenyl)pyrrolidine-1-carboxamide] | 5.01 to 631
10 to 83 (≈ 4.27 to 35.5 µg/mL) | CC(C)OC(=O)Nc1cnc2nc(-c3cc(NC(=O)N4CCCC4)ccc3F)cn2n1 [Example 54, isopropyl (6-(2-fluoro-5-(pyrrolidine-1-carboxamido)phenyl)imidazo[1,2-b][1,2,4]triazin-2-yl)carbamate] | 5.01 to 631
10 to 83 (≈ 3.99 to 33.1 µg/mL) | COC(=O)Nc1cnc2nc(-c3cc(NC(=O)N4CCCC4)ccc3F)cn2n1 [Example 55, methyl (6-(2-fluoro-5-(pyrrolidine-1-carboxamido)phenyl)imidazo[1,2-b][1,2,4]triazin-2-yl)carbamate] | 5.01 to 631
100 to 416 (≈ 41 to 171 µg/mL) | O=C(Nc1ccc(F)c(-c2cn3nc(N4CCNCC4)cnc3n2)c1)N1CCCC1 [Example 56, N-(4-fluoro-3-(2-(piperazin-1-yl)imidazo [1,2-b][1,2,4]triazin-6-yl)phenyl)pyrrolidine-1-carboxamide] | 5.01 to 631
